In patent US20260297081A1, “COMPOUNDS AND METHODS OF TREATING CANCERS” (Cullgen Inc., priority 2023, published 2026):

Biological target: CDK4 (Homo sapiens, UniProt P11802+Q16531)
Assay: CDK4 percentage degradation in Calu-1 cells (Table 6)
Assay type: cell-based
Set-up: Cells that express cyclin D1-3 and CDK4/6 proteins were treated with heterobifunctional compounds; endogenous in cells; host or cells: Calu-1
Conditions: 16 hours; for inhibition at 0.04 µM: 40 nM; for inhibition at 0.2 µM: 200 nM
Procedure, shortened: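 Calu-1 cells exposed to heterobifunctional compounds at 40 nM or 200 nM for 16 h. Cyclin D1 and CDK4 levels measured by Western blot of RIPA lysates (BCA-normalised loading), bands quantified by densitometry and expressed as percentage degradation.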

CDK4, sequence (P11802 2-303 limits assumed): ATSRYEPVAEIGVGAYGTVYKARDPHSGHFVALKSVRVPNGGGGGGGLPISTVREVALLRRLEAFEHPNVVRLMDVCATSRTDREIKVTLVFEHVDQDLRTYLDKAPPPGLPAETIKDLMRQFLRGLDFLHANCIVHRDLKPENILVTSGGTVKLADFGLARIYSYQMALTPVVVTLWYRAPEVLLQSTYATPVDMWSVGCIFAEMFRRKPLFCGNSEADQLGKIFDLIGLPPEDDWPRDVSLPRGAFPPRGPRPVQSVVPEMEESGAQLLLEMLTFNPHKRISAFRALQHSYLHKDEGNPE
CDK4, sequence (P24385 whole entry partner): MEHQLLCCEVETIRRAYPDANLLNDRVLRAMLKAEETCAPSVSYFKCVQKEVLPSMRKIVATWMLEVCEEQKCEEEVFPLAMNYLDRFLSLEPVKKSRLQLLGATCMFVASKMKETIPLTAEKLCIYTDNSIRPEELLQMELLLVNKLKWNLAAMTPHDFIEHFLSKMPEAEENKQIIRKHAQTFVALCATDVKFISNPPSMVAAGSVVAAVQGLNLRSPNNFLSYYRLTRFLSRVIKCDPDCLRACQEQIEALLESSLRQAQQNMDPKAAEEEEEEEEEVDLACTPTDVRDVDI
CDK4, sequence (Q16531 2-1140 limits assumed): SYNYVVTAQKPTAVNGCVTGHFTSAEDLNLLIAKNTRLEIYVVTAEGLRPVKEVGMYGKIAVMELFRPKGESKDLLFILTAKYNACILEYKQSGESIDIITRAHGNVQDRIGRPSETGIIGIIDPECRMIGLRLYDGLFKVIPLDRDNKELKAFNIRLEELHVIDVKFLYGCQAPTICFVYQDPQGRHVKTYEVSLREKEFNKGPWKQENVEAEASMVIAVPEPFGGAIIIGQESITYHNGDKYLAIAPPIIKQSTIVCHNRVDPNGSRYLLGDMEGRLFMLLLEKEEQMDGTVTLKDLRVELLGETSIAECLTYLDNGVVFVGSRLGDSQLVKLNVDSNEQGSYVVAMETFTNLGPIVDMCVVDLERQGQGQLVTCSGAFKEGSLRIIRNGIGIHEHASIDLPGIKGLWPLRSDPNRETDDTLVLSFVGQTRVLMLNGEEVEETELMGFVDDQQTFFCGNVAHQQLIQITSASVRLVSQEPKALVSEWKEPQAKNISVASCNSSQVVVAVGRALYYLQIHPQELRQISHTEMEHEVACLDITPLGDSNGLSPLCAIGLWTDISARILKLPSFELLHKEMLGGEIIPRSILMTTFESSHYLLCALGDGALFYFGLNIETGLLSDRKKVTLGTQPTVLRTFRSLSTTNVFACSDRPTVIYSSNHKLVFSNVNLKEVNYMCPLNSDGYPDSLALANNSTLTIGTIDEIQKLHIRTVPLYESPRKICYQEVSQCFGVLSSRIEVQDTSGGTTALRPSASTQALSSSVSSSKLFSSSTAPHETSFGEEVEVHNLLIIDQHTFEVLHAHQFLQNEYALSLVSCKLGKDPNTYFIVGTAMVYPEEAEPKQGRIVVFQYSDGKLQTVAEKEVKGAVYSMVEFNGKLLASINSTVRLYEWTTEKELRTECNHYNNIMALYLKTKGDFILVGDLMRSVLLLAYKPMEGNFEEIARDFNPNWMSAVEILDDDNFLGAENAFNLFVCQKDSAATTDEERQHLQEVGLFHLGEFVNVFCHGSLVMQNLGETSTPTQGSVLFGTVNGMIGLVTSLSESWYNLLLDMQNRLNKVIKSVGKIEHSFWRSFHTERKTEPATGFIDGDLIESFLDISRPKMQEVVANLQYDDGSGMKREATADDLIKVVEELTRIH

Row | Structure (SMILES) | inhibition at 0.04 µM | inhibition at 0.2 µM
1 | CNc1ccc(C(=O)Nc2ccc(C)c(C3CC3)n2)c(NCCCCCCCNC(=O)CN2CCN(c3ccc(Nc4ncc5c(C)c(C(C)=O)c(=O)n(C6CCCC6)c5n4)nc3)CC2)n1 [CPD-6, 2-((7-(2-(4-(6-((6-acetyl-8-cyclopentyl-5-methyl-7-oxo-7,8-dihydropyrido[2,3-d]pyrimidin-2-yl)amino)pyridin-3-yl)piperazin-1-yl)acetamido)heptyl)amino)-N-(6-cyclopropyl-5-methylpyridin-2-yl)-6-(methylamino)nicotinamide] | 50 to 80% | –
2 | CC(=O)c1c(C)c2cnc(Nc3ccc(N4CCN(CC(=O)NC5CC6(C5)CC(Nc5nc(C(C)C)ccc5C(=O)Nc5cccc(C7CC7)n5)C6)CC4)cn3)nc2n(C2CCCC2)c1=O (centres unmarked) [CPD-119, 2-((6-(2-(4-(6-((6-Acetyl-8-cyclopentyl-5-methyl-7-oxo-7,8-dihydropyrido[2,3-d]pyrimidin-2-yl)amino)pyridin-3-yl)piperazin-1-yl)acetamido)spiro[3.3]heptan-2-yl)amino)-N-(6-cyclopropylpyridin-2-yl)-6-isopropylnicotinamide] | < 30% | 30 to 50%
3 | CC(=O)c1c(C)c2cnc(Nc3ccc(N4CCN(CC(=O)NC5CC6(C5)CC(Nc5nc(C7CC7)ccc5C(=O)Nc5cccc(C7CC7)n5)C6)CC4)cn3)nc2n(C2CCCC2)c1=O (centres unmarked) [CPD-138, 2-((6-(2-(4-(6-((6-Acetyl-8-cyclopentyl-5-methyl-7-oxo-7,8-dihydropyrido[2,3-d]pyrimidin-2-yl)amino)pyridin-3-yl)piperazin-1-yl)acetamido)spiro[3.3]heptan-2-yl)amino)-6-cyclopropyl-N-(6-cyclopropylpyridin-2-yl)nicotinamide] | < 30% | 30 to 50%
4 | CNc1ccc(C(=O)Nc2ccc(N(C)C)nn2)c(NC2CC3(C2)CN(C(=O)C(C)(C)CN2CCN(c4ccc(Nc5ncc6c(C)c(C(C)=O)c(=O)n(C7CCCC7)c6n5)nc4)CC2)C3)n1 [CPD-118, 2-((2-(3-(4-(6-((6-Acetyl-8-cyclopentyl-5-methyl-7-oxo-7,8-dihydropyrido[2,3-d]pyrimidin-2-yl)amino)pyridin-3-yl)piperazin-1-yl)-2,2-dimethylpropanoyl)-2-azaspiro[3.3]heptan-6-yl)amino)-N-(6-(dimethylamino)pyridazin-3-yl)-6-(methylamino)nicotinamide] | 50 to 80% | 50 to 80%
5 | CNc1ccc(C(=O)Nc2ccc(N(C)C)nn2)c(NC2CC(CCC(=O)N3CCN(c4ccc(Nc5ncc6c(C)c(C(C)=O)c(=O)n(C7CCCC7)c6n5)nc4)CC3)C2)n1 (centres unmarked) [CPD-185, 2-((3-(3-(4-(6-((6-acetyl-8-cyclopentyl-5-methyl-7-oxo-7,8-dihydropyrido[2,3-d]pyrimidin-2-yl)amino)pyridin-3-yl)piperazin-1-yl)-3-oxopropyl)cyclobutyl)amino)-N-(6-(dimethylamino)pyridazin-3-yl)-6-(methylamino)nicotinamide] | < 30% | 30 to 50%
6 | CNc1ccc(C(=O)Nc2ccc(N(C)C)nn2)c(NC2CN(CCNC(=O)CN3CCN(c4ccc(Nc5ncc6c(C)c(C(C)=O)c(=O)n(C7CCCC7)c6n5)nc4)CC3)C2)n1 [CPD-107, 2-((1-(2-(2-(4-(6-((6-Acetyl-8-cyclopentyl-5-methyl-7-oxo-7,8-dihydropyrido[2,3-d]pyrimidin-2-yl)amino)pyridin-3-yl)piperazin-1-yl)acetamido)ethyl)azetidin-3-yl)amino)-N-(6-(dimethylamino)pyridazin-3-yl)-6-(methylamino)nicotinamide] | < 30% | < 30%
7 | CNc1ccc(C(=O)Nc2cccc(C3CC3)n2)c(NC2CC(CNC(=O)CN3CCN(c4ccc(Nc5ncc6c(C)c(C(C)=O)c(=O)n(C7CCCC7)c6n5)nc4)CC3)C2)n1 (centres unmarked) [CPD-162, 2-((3-((2-(4-(6-((6-acetyl-8-cyclopentyl-5-methyl-7-oxo-7,8-dihydropyrido[2,3-d]pyrimidin-2-yl)amino)pyridin-3-yl)piperazin-1-yl)acetamido)methyl)cyclobutyl)amino)-N-(6-cyclopropylpyridin-2-yl)-6-(methylamino)nicotinamide] | 50 to 80% | 50 to 80%
8 | [2H]C([2H])([2H])Nc1ccc(C(=O)Nc2ccc(N(C)C)nn2)c(NC2CC3(C2)CN(C(=O)C(F)(F)CN2CCN(c4ccc(Nc5ncc6c(C)c(C(C)=O)c(=O)n(C7CCCC7)c6n5)nc4)CC2)C3)n1 [CPD-249, 2-((2-(3-(4-(6-((6-acetyl-8-cyclopentyl-5-methyl-7-oxo-7,8-dihydropyrido[2,3-d]pyrimidin-2-yl)amino)pyridin-3-yl)piperazin-1-yl)-2,2-difluoropropanoyl)-2-azaspiro[3.3]heptan-6-yl)amino)-N-(6-(dimethylamino)pyridazin-3-yl)-6-((methyl-d3)amino)nicotinamide] | 50 to 80% | 50 to 80%
9 | CNc1ccc(C(=O)Nc2ccc(N(C)C)nn2)c(NC2CC(NC(=O)CN3CCN(c4ccc(Nc5ncc6c(C)c(C(C)=O)c(=O)n(C7CCCC7)c6n5)nc4)CC3)C2)n1 (centres unmarked) [CPD-149, 2-((3-(2-(4-(6-((6-acetyl-8-cyclopentyl-5-methyl-7-oxo-7,8-dihydropyrido[2,3-d]pyrimidin-2-yl)amino)pyridin-3-yl)piperazin-1-yl)acetamido)cyclobutyl)amino)-N-(6-(dimethylamino)pyridazin-3-yl)-6-(methylamino)nicotinamide] | 30 to 50% | 50 to 80%
10 | CNc1ccc(C(=O)Nc2ccc(N(C)C)nn2)c(NC2CC3(CC(NC(=O)N4CCN(c5ccc(Nc6ncc7c(C)c(C(C)=O)c(=O)n(C8CCCC8)c7n6)nc5)CC4)C3)C2)n1 (centres unmarked) [CPD-134, 4-(6-((6-Acetyl-8-cyclopentyl-5-methyl-7-oxo-7,8-dihydropyrido[2,3-d]pyrimidin-2-yl)amino)pyridin-3-yl)-N-(6-((3-((6-(dimethylamino)pyridazin-3-yl)carbamoyl)-6-(methylamino)pyridin-2-yl)amino)spiro[3.3]heptan-2-yl)piperazine-1-carboxamide] | < 30% | 30 to 50%
11 | CC(=O)c1c(C)c2cnc(Nc3ccc(N4CCN(CC(=O)NC5CC6(C5)CC(Nc5nc(C)ccc5C(=O)Nc5cc(C)on5)C6)CC4)cn3)nc2n(C2CCCC2)c1=O (centres unmarked) [CPD-192, ((6-(2-(4-(6-((6-acetyl-8-cyclopentyl-5-methyl-7-oxo-7,8-dihydropyrido[2,3-d]pyrimidin-2-yl)amino)pyridin-3-yl)piperazin-1-yl)acetamido)spiro[3.3]heptan-2-yl)amino)-6-methyl-N-(5-methylisoxazol-3-yl)nicotinamide] | < 30% | < 30%
12 | CNc1ccc(C(=O)Nc2ccc(N(C)C)nn2)c(NC2CC3(CC(NCC(=O)N4CCN(c5ccc(Nc6ncc7c(C)c(C(C)=O)c(=O)n(C8CCCC8)c7n6)nc5)CC4)C3)C2)n1 (centres unmarked) [CPD-78, 2-((6-((2-(4-(6-((6-Acetyl-8-cyclopentyl-5-methyl-7-oxo-7,8-dihydropyrido[2,3-d]pyrimidin-2-yl)amino)pyridin-3-yl)piperazin-1-yl)-2-oxoethyl)amino)spiro[3.3]heptan-2-yl)amino)-N-(6-(dimethylamino)pyridazin-3-yl)-6-(methylamino)nicotinamide] | 50 to 80% | 50 to 80%
